Source: ChEMBL document CHEMBL1134993, “Synthesis of [difluoro-(3-alkenylphenyl)-methyl]-phosphonic acids on non-crosslinked polystyrene and their evaluation as inhibitors of PTP1B” (Bioorg Med Chem Lett, 2002)
Activity calls are given as the source filed them. The rule behind the calls is not given here.

Legend:
[1] = molecular target: T1, Tyrosine-protein phosphatase non-receptor type 1 (Homo sapiens) (UniProt P18031); assay: Compound was evaluated for its percent Inhibition of protein-tyrosine phosphatase 1B (PTP1B) at the concentration of 50 uM; […]
T1 sequence (whole entry): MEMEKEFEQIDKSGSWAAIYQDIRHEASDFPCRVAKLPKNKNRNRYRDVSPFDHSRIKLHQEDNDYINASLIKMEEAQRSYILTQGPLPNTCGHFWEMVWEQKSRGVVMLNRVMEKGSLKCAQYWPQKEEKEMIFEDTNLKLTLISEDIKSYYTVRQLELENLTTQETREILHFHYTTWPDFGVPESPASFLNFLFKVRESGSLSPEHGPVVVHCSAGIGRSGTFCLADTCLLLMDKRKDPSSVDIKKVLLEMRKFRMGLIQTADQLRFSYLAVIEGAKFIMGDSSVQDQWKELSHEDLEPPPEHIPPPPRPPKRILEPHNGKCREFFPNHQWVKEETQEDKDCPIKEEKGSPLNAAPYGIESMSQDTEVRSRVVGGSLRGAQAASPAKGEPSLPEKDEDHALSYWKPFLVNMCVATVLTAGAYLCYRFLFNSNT

[2] = molecular target: T1, Tyrosine-protein phosphatase non-receptor type 1 (Homo sapiens); assay: Compound was evaluated for its percent Inhibition of protein-tyrosine phosphatase 1B (PTP1B) at the concentration of 50 uM; Showed little or no inhibition
[3] = molecular target: T1, Tyrosine-protein phosphatase non-receptor type 1 (Homo sapiens); assay: Compound was evaluated for its percent Inhibition of protein-tyrosine phosphatase 1B (PTP1B) at the concentration of 50 uM
[4] = molecular target: T2, Tyrosine-protein phosphatase non-receptor type 1 (Homo sapiens, UniProt P18031); assay: Inhibitory concentration against protein-tyrosine phosphatase 1B (PTB 1B)
T2 sequence (P18031 whole entry): T1 sequence (whole entry)

[5] = molecular target: T2, Tyrosine-protein phosphatase non-receptor type 1; assay: Inhibitory concentration against Protein-tyrosine phosphatase 1B (PTP1B)
[6] = molecular target: T2, Tyrosine-protein phosphatase non-receptor type 1; assay: Binding affinity towards protein-tyrosine phosphatase 1B (PTP1B)

SMILES	inhibition [2]	inhibition [3] [%]	also measured
CC/C=C\c1cccc(C(F)(F)P(=O)(O)O)c1			inhibition [1]: inactive
O=P(O)(O)C(F)(F)c1cccc(/C=C\c2ccc(F)cc2)c1	inactive		
O=P(O)(O)C(F)(F)c1cccc(/C=C\c2ccc(Cl)cc2)c1	inactive		
CC(C)=C/C=C\c1cccc(C(F)(F)P(=O)(O)O)c1			inhibition [1]: inactive
Cc1ccccc1/C=C\c1cccc(C(F)(F)P(=O)(O)O)c1	inactive		
N#C/C=C\c1cccc(C(F)(F)P(=O)(O)O)c1		45	
O=P(O)(O)C(F)(F)c1cccc(-c2ccccc2)c1			IC50 [4]: 0.015 mM
CCOc1ccc(/C=C\c2cccc(C(F)(F)P(=O)(O)O)c2)cc1	inactive		
Cc1ccc(/C=C\c2cccc(C(F)(F)P(=O)(O)O)c2)cc1	inactive		
O=C(/C=C\c1cccc(C(F)(F)P(=O)(O)O)c1)OCc1ccccc1		71	
CN(C)C/C=C\c1cccc(C(F)(F)P(=O)(O)O)c1			inhibition [1]: inactive
O=P(O)(O)C(F)(F)c1cccc(/C=C\Cl)c1			inhibition [1]: inactive
O=P(O)(O)C(F)(F)c1cccc(/C=C\c2cccc3ccccc23)c1		60	
CCOC(=O)/C=C\c1cccc(C(F)(F)P(=O)(O)O)c1		53	
O=[N+]([O-])c1ccc(/C=C\c2cccc(C(F)(F)P(=O)(O)O)c2)cc1	inactive		
COC(=O)/C=C\c1cccc(C(F)(F)P(=O)(O)O)c1		23	
O=P(O)(O)C(F)(F)c1cccc(/C=C\c2ccc(Br)cc2)c1	inactive		
C=CCOC(=O)/C=C\c1cccc(C(F)(F)P(=O)(O)O)c1		84	IC50 [5]: 12.2 mM; Ki [6]: 8 mM
O=P(O)(O)C(F)(F)c1cccc(/C=C\c2ccccc2)c1	inactive		
O=P(O)(O)C(F)(F)c1cccc(/C=C\CCc2ccccc2)c1			inhibition [1]: inactive
O=P(O)(O)C(F)(F)c1cccc(/C=C\C=C\c2ccccc2)c1		70	
